Results published in a compilation of properties of binary mixtures (doi:10.1515/zpch-2013-0494).

Test: xn = mol fraction of the nth substance listed
Settings: 101 kPa

CC(CC(C)(C)C)CP(=O)([O-])CC(C)CC(C)(C)C.CCCCCCCCCCCCCC[P+](CCCCCC)(CCCCCC)CCCCCC + CCCCCCCCCCCC
viscosity [mPa·s]
Settings	x1 = 0.4684	x1 = 0.6647	x1 = 0.8071	x1 = 1
298.15 K	–	249	449	1000
303.15 K	64.2	195	344	–
308.15 K	–	156	291	–
313.15 K	48	126	233	439
318.15 K	40.9	–	180	–
323.15 K	35.2	85	144	264
328.15 K	30.5	69.9	118	–
333.15 K	27.1	59.3	95.4	170
338.15 K	24.2	–	81.1	–
343.15 K	21.2	–	65	–
353.15 K	–	–	–	78

CCCCCCCCCCCCCC[P+](CCCC)(CCCC)CCCC.CCCCCCCCCCCCc1ccccc1S(=O)(=O)[O-] + CCCCCCCCCCCC
viscosity [mPa·s]
Settings	x1 = 0.354	x1 = 0.4402	x1 = 0.4844	x1 = 0.6789	x1 = 1
298.15 K	312	–	594	2930	–
303.15 K	225	–	441	1580	–
308.15 K	167	239	–	1130	–
313.15 K	–	–	–	812	1480
318.15 K	95	135	176	–	–
323.15 K	74.3	105	135	431	750
328.15 K	–	81.7	101	–	–
333.15 K	47.7	65.7	81.6	228	409
338.15 K	–	53.6	–	169	–
343.15 K	31.5	44.3	54.4	–	238
348.15 K	26.5	36.8	43.3	108	–
353.15 K	22.6	31.1	37.1	–	148

CCCCCCCCCCCCCC[P+](CCCCCC)(CCCCCC)CCCCCC.N#C[N-]C#N + CCCCCCCCCCCC
viscosity [mPa·s]
Settings	298.15 K	303.15 K	308.15 K	313.15 K	318.15 K	333.15 K	338.15 K	343.15 K	348.15 K	353.15 K
x1 = 0.5534	160	116	–	71.6	57.8	32.8	28	–	21.2	19
x1 = 0.736	238	181	141	–	89.1	49.3	41.4	35.5	30.3	26.1
x1 = 1	440	–	–	196	–	82	–	56	–	–
